# Where two headings read alike, the source gives them in different places.
# What was measured:
# K562 cells = test: Cell Titer Glo 2.0 cell viability (toxicity) assay, K562; details: 500 cells/well, 72 hours
# SMN2 mRNA = test: RT-qPCR splicing assay, SMN2 mRNA; type: cell-based, human; details: Homo sapiens, canonical junction qPCR panel, Table 4; read-out: SMN2 IC50 (decrease in CJ mRNA levels)
# Procedure, shortened: (§1)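 Splice switching quantified in compound-treated A673/K562 cells after 24 h exposure (top dose 10 uM, 3-fold steps, ≤0.25% DMSO), using CJ and AJ qPCR assays run at least in duplicate. RQ derived by 2^(−ΔΔCt), then percentage response.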
# HTT mRNA = test: RT-qPCR splicing assay, HTT mRNA canonical (CJ) and alternative (AJ) junction; type: cell-based, human; details: Homo sapiens; for AC50: HTT alternative junction mRNA, read-out: HTT AJ (increase in AJ mRNA, AC50)
# Procedure, shortened: as §1
# MYB = test: HiBiT protein abundance assay, MYB (K562 HiBiT knock-in); type: cell-based, human; details: HiBiT knock-in K562 cells, 24 hours, top dose 10 μM
# Procedure, shortened: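 Steps: seed HiBiT knock-in K562 cells; add compound in 10-point 3-fold series from 10 μM final; incubate 24 h, 37 °C; add lytic HiBiT reagent, shake 5 min, wait 10 min; read luminescence. Normalize to parental K562 and DMSO controls, fit 4PL, take IC50.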
# [1] = HTT canonical junction mRNA, RT-qPCR, read-out: HTT CJ (decrease in CJ mRNA levels, IC50)
# [2] = canonical junction qPCR panel, Table 4, read-out: HTT IC50 (decrease in CJ mRNA levels)
Compound,"Effect of Exemplary Compounds on Cell Viability, K562 (K562 cells)",IC50 (SMN2 mRNA) [nM],AC50 (HTT mRNA; RT-qPCR) [nM],IC50 (HTT mRNA; [1]) [nM],IC50 (HTT mRNA; [2]) [nM],IC50 (MYB) [nM]
"Cn1cc2cc(-c3ccc4nc([C@@H]5CCNC6(CC6)C5)ccc4n3)c(O)cc2n1 (single isomer, unassigned) [Compound 495]",B (B represents 100-1000 nM),< 100,< 100,< 100,< 100,< 100
"Cn1cc2cc(-c3ccc4nc([C@H]5CCNC6(CC6)C5)ccc4n3)c(O)cc2n1 (single isomer, unassigned) [Compound 496]",B (B represents 100-1000 nM),< 100,< 100,100 to 1000,100 to 1000,< 100
"Cc1nc2cc(O)c(-c3ccc4nc([C@H]5CCNC6(CC6)C5)ccc4n3)cc2o1 (single isomer, unassigned) [Compound 497]",A (A represents <100 nM),< 100,< 100,< 100,< 100,< 100
"Cc1nc2cc(O)c(-c3ccc4nc([C@@H]5CCNC6(CC6)C5)ccc4n3)cc2o1 (single isomer, unassigned) [Compound 498]",B (B represents 100-1000 nM),< 100,< 100,< 100,< 100,< 100
"CN[C@@H]1CCN(c2ccc3nc(-c4cn5cc(C)nc5c(C)c4O)ncc3n2)C1 (single isomer, unassigned) [Compound 504]",B (B represents 100-1000 nM),< 100,100 to 1000,100 to 1000,100 to 1000,100 to 1000
"CNC(=O)c1nc(-c2cc3cn(C)nc3c(C)c2O)nc2ccc(N3CCN[C@@H](C)C3)cc12 (single isomer, unassigned) [Compound 512]",A (A represents <100 nM),< 100,100 to 1000,100 to 1000,100 to 1000,< 100
"CN[C@@H]1CCN(c2ccc3nc(-c4cc5cn(C)nc5c(C)c4O)ncc3c2)C1 (single isomer, unassigned) [Compound 521]",A (A represents <100 nM),< 100,100 to 1000,< 100,< 100,< 100
"CNC(=O)c1nc(-c2cc3cn(C)nc3c(C)c2O)nc2ccc(N3C[C@@H](C)N[C@H](C)C3)cc12 (single isomer, unassigned) [Compound 653]",A (A represents <100 nM),< 100,100 to 1000,< 100,< 100,< 100
"Cc1c(O)c(-c2ncc3cc(N4C[C@@H](C)N[C@H](C)C4)ccc3n2)cc2cn(C)nc12 (single isomer, unassigned) [Compound 661]",B (B represents 100-1000 nM),< 100,1000 to 10000,100 to 1000,100 to 1000,< 100
"CNC(=O)c1nc(-c2cc3cn(C)nc3c(F)c2O)nc2ccc(N3C[C@@H](C)N[C@H](C)C3)cc12 (single isomer, unassigned) [Compound 668]",A (A represents <100 nM),< 100,1000 to 10000,100 to 1000,100 to 1000,< 100
"CNC(=O)c1nc(-c2cc3cn(C)nc3c(F)c2O)nc2ccc(N3C[C@H](C)N[C@@H](C)C3)cc12 (single isomer, unassigned) [Compound 669]",A (A represents <100 nM),< 100,100 to 1000,100 to 1000,100 to 1000,< 100
"CNC(=O)c1nc(-c2cc3cn(C)nc3cc2O)nc2ccc(N3C[C@H](C)N[C@@H](C)C3)cc12 (single isomer, unassigned) [Compound 676]",A (A represents <100 nM),< 100,100 to 1000,100 to 1000,100 to 1000,< 100
"CNC(=O)c1nc(-c2cc3cn(C)nc3cc2O)nc2ccc(N3C[C@@H](C)N[C@H](C)C3)cc12 (single isomer, unassigned) [Compound 677]",B (B represents 100-1000 nM),< 100,1000 to 10000,100 to 1000,100 to 1000,< 100
"Cc1cn2cc(-c3ccc4cc(N5C[C@H](C)N[C@@H](C)C5)cc(F)c4n3)cc(F)c2n1 (single isomer, unassigned) [Compound 705, 2,2,2-trifluoroacetate]",A (A represents <100 nM),–,100 to 1000,100 to 1000,100 to 1000,< 100
Cn1cc2cc(-c3ncc4nc(C5CCNCC5)ccc4n3)c(O)c(F)c2n1 [Compound 155],A (A represents <100 nM),< 100,< 100,< 100,< 100,< 100
Cc1nc2cc(O)c(-c3ccc4nc(N5CCNC(C(C)(C)C)C5)ccc4n3)cc2o1 (centres unmarked) [Compound 492],C (C represents 1000-9999 nM),< 100,100 to 1000,100 to 1000,100 to 1000,100 to 1000
Cc1nc2cc(O)c(-c3ccc4nc(N5CC[C@@H](N(C)C(C)(C)C)C5)ccc4n3)cc2o1 [Compound 493],A (A represents <100 nM),< 100,< 100,< 100,< 100,< 100
"Cc1c(O)c(-c2nc(C(=O)N(C)C)c3cc(N4CCNCC4)ccc3n2)cc2cn(C)nc12 [Compound 502, 2-(6-hydroxy-2,7-dimethylindazol-5-yl)-N,N-dimethyl-6-(piperazin-1-yl)quinazoline-4-carboxamide]",C (C represents 1000-9999 nM),100 to 1000,1000 to 10000,1000 to 10000,1000 to 10000,1000 to 10000
"CCNC(=O)c1nc(-c2cc3cn(C)nc3c(C)c2O)nc2ccc(N3CCNCC3)cc12 [Compound 503, N-ethyl-2-(6-hydroxy-2,7-dimethylindazol-5-yl)-6-(piperazin-1-yl)quinazoline-4-carboxamide]",A (A represents <100 nM),< 100,< 100,< 100,< 100,< 100
"CNC(=O)c1nc(-c2cc(F)c3nc(C)cn3c2)nc2ccc(N3CCNCC3)cc12 [Compound 505, 2-{8-fluoro-2-methylimidazo[1,2-a]pyridin-6-yl}-N-methyl-6-(piperazin-1-yl) quinazoline-4-carboxamide]",B (B represents 100-1000 nM),< 100,100 to 1000,100 to 1000,100 to 1000,< 100
"CNC(=O)c1nc(-c2cc3cn(C)nc3c(F)c2O)nc2ccc(N3CCNCC3)cc12 [Compound 506, 2-(7-fluoro-6-hydroxy-2-methylindazol-5-yl)-N-methyl-6-(piperazin-1-yl)quinazoline-4-carboxamide]",–,< 100,100 to 1000,< 100,< 100,< 100
"CNC(=O)c1nc(-c2cc3cn(C)nc3c(C)c2O)nc2ccc(N3CCC(N(C)C)CC3)cc12 [Compound 507, 6-[4-(dimethylamino)piperidin-1-yl]-2-(6-hydroxy-2,7-dimethylindazol-5-yl)-N-methylquinazoline-4-carboxamide]",A (A represents <100 nM),< 100,1000 to 10000,100 to 1000,100 to 1000,< 100
"CNc1nc(-c2cc3cn(C)nc3c(C)c2O)nc2ccc(N3CCNCC3)cc12 [Compound 508, 2,7-dimethyl-5-[4-(methylamino)-6-(piperazin-1-yl)quinazolin-2-yl]indazol-6-ol]",–,100 to 1000,> 10000,> 10000,> 10000,1000 to 10000
"Cc1c(O)c(-c2nc(N(C)C)c3cc(N4CCNCC4)ccc3n2)cc2cn(C)nc12 [Compound 509, 5-[4-(dimethylamino)-6-(piperazin-1-yl)quinazolin-2-yl]-2,7-dimethylindazol-6-ol]",–,100 to 1000,> 10000,> 10000,> 10000,1000 to 10000
"CNC(=O)c1nc(-c2cc3cn(C)nc3c(C)c2O)nc2ccc(N3CCC(NC)C3)cc12 (centres unmarked) [Compound 510, 2-(6-hydroxy-2,7-dimethylindazol-5-yl)-N-methyl-6-[3-(methylamino)pyrrolidin-1-yl]quinazoline-4-carboxamide]",A (A represents <100 nM),< 100,100 to 1000,< 100,< 100,< 100

# Source: US20250092065A1, “2-(INDAZOL-5-YL)-6-(PIPERIDIN-4-YL)-1,7-NAPHTHYRIDINE DERIVATIVES AND RELATED COMPOUNDS AS MODULATORS FOR SPLICING NUCLEIC ACIDS AND FOR THE TREATMENT OF PROLIFERATIVE DISEASES” (REMIX THERAPEUTICS INC., priority 2022, published 2025)
